{"source": "patent US8372600B2", "about": "“Method and apparatus for measuring changes in cell volume” (priority 2004, dated 2013)", "key": {"[1]": {"molecular_target": "T1, P2X7 (purinergic ion channels) (Homo sapiens, UniProt Q99572)", "T1 construct": "expressed in transfected cells; host or cells: HEK cells", "T1 sequence (Q99572 1-595)": "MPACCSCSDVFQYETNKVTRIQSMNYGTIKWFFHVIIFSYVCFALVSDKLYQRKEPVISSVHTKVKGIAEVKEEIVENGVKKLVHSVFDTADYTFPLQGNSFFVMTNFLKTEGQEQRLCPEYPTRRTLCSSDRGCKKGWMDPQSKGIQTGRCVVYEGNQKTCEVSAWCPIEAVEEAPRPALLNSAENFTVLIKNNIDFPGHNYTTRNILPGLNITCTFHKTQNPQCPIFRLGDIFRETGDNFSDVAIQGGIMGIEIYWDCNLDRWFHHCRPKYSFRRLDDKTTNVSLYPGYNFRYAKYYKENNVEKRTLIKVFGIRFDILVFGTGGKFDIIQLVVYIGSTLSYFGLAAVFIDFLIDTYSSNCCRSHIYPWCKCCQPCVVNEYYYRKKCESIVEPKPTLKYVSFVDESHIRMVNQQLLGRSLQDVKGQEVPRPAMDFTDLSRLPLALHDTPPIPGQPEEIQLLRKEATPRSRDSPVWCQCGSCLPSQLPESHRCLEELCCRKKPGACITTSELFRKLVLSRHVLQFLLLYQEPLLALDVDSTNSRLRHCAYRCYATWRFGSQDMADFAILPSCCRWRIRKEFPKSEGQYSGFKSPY", "test": "Volume change of HEK cells transfected with P2X7, measured in the chamber", "type": "cell-based", "excerpt": "The chamber is sensitive to more than toxic or anisotonic media. […] Thus, the device can serve as a coarse grained substitute for common (but slow) electrophysiologically assays."}, "astrocyte RVD": {"test_system": "astrocyte RVD", "test": "Astrocyte regulatory volume decrease (RVD) under a 188 mOsm hypotonic stimulus, measured as chamber resistance in the microfluidic chip", "type": "cell-based, rat", "conditions": "188 mOsm stimulus; for Effect on RVD: FIG. 13", "excerpt": "A microfluidic chip comprising a channel 15 μm deep and 1.5 mm wide was fabricated an connected to a fluid inlet and a fluid outlet. Along the length of the channel, there were two chambers (labeled 22 and 24 in FIGS. 1-3). Chamber 22 was configured for measuring cell volume and comprised a depth of 15 μm. Chamber 24 was deeper (55 μm) and served as a calibrating chamber for monitoring solution resistivity. Thin film platinum electrodes disposed in each chamber formed a four-point probe for measuring the chamber impedance. The chip was mounted on an acrylic platform to mate with external fluid connections. For testing adherent cells, the cells were cultured on glass coverslips and inverted on top of the chip so that the cells faced chamber 22. The coverslip was pressed against the chip with a clamp that applied a uniform force of approximately 50 N. For the electrical measurements, an active current source providing 1 μA of a 50 Hz sinusoid was applied to the two outer electrodes. Low frequency stimulation was utilized to minimize the dielectric loss in the silicon and to reduce the demands on the common mode rejection of the voltage amplifier. The voltage between the two inner electrodes was measured using a homemade instrumentation amplifier with input currents <1 pA to reduce polarization. A lock-in amplifier provided rectification and filtering.\nTo test the microfluidic chip performance with living cells, examination of the volume regulatory response of rat astrocytes was conducted. Solution osmolality was adjusted using mannitol, which allowed a constant ionic strength to be maintained. For the most critical tests, the solution conductivities were finely titrated to be equal at all osmotic pressures; the flow rate was constant at approximately 0.3 μl/s. FIGS. 10 and 11 show the astrocytes' response to perfusion with hypotonic and hypertonic stimuli. Hypotonic media caused a rapid (˜1 min) increase in volume followed by a slow (10 min) decrease—the well known regulatory volume decrease (RVD). RVD in astrocytes is due to the efflux of KCl and neutral organic osmolytes such as taurine. The time course and extent of RVD using 188, 220, and 273 mOsm solutions (FIG. 10) are in agreement with published data. RVD in other cell types was tested, including HEK and MDCK, and similar responses were identified. However, the RVI was only observed with mild stimuli (<345 mOsm) (FIG. 11). Similar results have been previously reported for astrocytes. The RVI under the above conditions is driven by Na^+, K^+, and Cl^− fluxes through a co-transporter.\nA microfluidic chip was tested by screening peptides isolated from the tarantula Grammostola spatulata. The peptides were added to a hypotonic perfusate and their effects on astrocyte RVD were examined. […]"}, "GH3 cells": {"test_system": "GH3 cells", "conditions": "previously known; cited from earlier work"}, "[2]": {"test_system": "E. Coli strain (BL21(DE3))", "test": "Antibiotic sensitivity of suspended bacteria: growth monitored by chamber resistance", "type": "cell-based", "conditions": "50 μg/ml and 10 μg/ml, 24° C., FIG. 14", "experimental": "To test the microfluidic chip performance with suspended cells, the first chamber was perfused with an E. Coli suspension. The E. Coli strain (BL21(DE3)) harbors a plasmid that confers resistance to kanamycin. The cells were tested for antibiotic sensitivity by adding varying concentrations of carbenicillin—an antibiotic to which the bacteria are susceptible. After filling the chamber with bacteria, flow was stopped and the chamber resistance monitored. […] By adding specific ligands, such as antibodies, to the walls of the measuring chamber, specific microorganisms can be purified, concentrated and assayed in a single step. Since cellular organelles are similar in size to bacteria, the present invention can also be used to study the metabolism of mitochondria, chloroplasts, and vesicles or organelles such as the ER."}}}
{"compound": "Nc1ncnc2c1ncn2[C@@H]1O[C@H](COP(=O)(O)OP(=O)(O)OP(=O)(O)O)[C@@H](O)[C@H]1O", "note": "[ATP]", "values": [{"measurement": "Cell volume response following activation", "setting": "[1]", "result": "reversible volume changes"}]}
{"compound": "GsMTx1", "values": [{"measurement": "Reduction of RVD", "setting": "astrocyte RVD; 100 pM peptide in hypotonic perfusate", "result": "about 50%"}, {"measurement": "Effect on RVD", "setting": "astrocyte RVD; 1 nM peptide in hypotonic perfusate", "result": "completely blocked"}, {"measurement": "Effect on RVD", "setting": "astrocyte RVD; 10 nM peptide in hypotonic perfusate", "result": "completely blocked"}, {"measurement": "Effect on RVD", "setting": "astrocyte RVD; 1 μM peptide in hypotonic perfusate", "result": "completely blocked"}, {"measurement": "Effect on swelling-induced Ca2+ uptake", "setting": "GH3 cells", "result": "block"}]}
{"compound": "CC1(C)S[C@@H]2[C@H](NC(=O)C(C(=O)O)c3ccccc3)C(=O)N2[C@H]1C(=O)O", "note": "(some centres unmarked) [Carbenicillin, carbenicillin]", "values": [{"measurement": "Time until growth was visibly slowed", "setting": "[2]", "result": "≤ 15", "unit": "min"}, {"measurement": "Effect on bacterial growth", "setting": "[2]; concentration dependent", "result": "visibly slowed growth"}]}
